Data published in patent publication US10610520B2, “Heterocyclic compound” (Takeda Pharmaceutical Company Limited, priority 2016, dated 2020).

target: T1, His-hMAGL (recombinant polyhistidine tagged human MAGL protein) (Homo sapiens, UniProt Q99685); experiment: Measurement of MAGL inhibitory activity (arachidonic acid production from 2-arachidonylglycerol, RapidFire-mass spectrometry); assay type: biochemical; details: MAGL inhibitory rate, test compound 10 μM, 60 min preincubation, 2-arachidonylglycerol substrate
T1 construct: made in house; host or cells: E. coli BL21(DE3)
T1 sequence (Q99685 1-303): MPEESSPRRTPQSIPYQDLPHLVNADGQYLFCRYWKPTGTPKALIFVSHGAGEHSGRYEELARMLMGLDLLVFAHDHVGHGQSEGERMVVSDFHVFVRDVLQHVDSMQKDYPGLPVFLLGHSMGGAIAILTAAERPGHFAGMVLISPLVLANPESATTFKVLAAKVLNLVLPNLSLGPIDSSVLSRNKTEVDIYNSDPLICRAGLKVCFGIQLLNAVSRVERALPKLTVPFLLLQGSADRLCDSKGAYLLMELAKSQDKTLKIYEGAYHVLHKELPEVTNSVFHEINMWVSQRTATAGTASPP
Outline: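 Arachidonic acid formed was quantified by online solid-phase extraction and triple-quadrupole MS in negative SRM mode against a d8 internal standard. Reaction: recombinant His-hMAGL (7.5 ng/mL, pH 7.5 Tris buffer with Triton X-100 and BSA) plus 2-AG (5 μL of 150 μM stock) for 10 min at room temperature, quenched with 2% formic acid. Percent inhibition corrected for enzyme-free background.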

Row | Compound | inhibition at 10 µM [%]
1 | O=C1CCC2(CN(C(=O)c3sc4cc(OC(F)(F)F)ccc4c3C(F)(F)F)C2)N1 [Example 263, 2-((6-(trifluoromethoxy)-3-(trifluoromethyl)-1-benzothiophen-2-yl)carbonyl)-2,5-diazaspiro[3.4]octan-6-one] | 98
2 | O=C1NC2(CO1)CN(C(=O)c1sc3cc(OC(F)(F)F)ccc3c1C(F)F)C2 [Example 264, 2-((3-(difluoromethyl)-6-(trifluoromethoxy)-1-benzothiophen-2-yl)carbonyl)-7-oxa-2,5-diazaspiro[3.4]octan-6-one] | 100
3 | O=C1CCC2(CN(C(=O)c3sc4cc(OC(F)(F)F)ccc4c3C(F)F)C2)N1 [Example 265, 2-((3-(difluoromethyl)-6-(trifluoromethoxy)-1-benzothiophen-2-yl)carbonyl)-2,5-diazaspiro[3.4]octan-6-one] | 97
4 | O=C1NC2(CO1)CN(C(=O)c1sc3cccc(OC(F)(F)F)c3c1Cl)C2 [Example 266, 2-((3-chloro-4-(trifluoromethoxy)-1-benzothiophen-2-yl)carbonyl)-7-oxa-2,5-diazaspiro[3.4]octan-6-one] | 101
5 | O=C1NC2(CO1)CN(C(=O)c1sc3c(OC(F)(F)F)ccc(F)c3c1Cl)C2 [Example 267, 2-((3-chloro-4-fluoro-7-(trifluoromethoxy)-1-benzothiophen-2-yl)carbonyl)-7-oxa-2,5-diazaspiro[3.4]octan-6-one] | 101
6 | O=C1NC2(CO1)CN(C(=O)c1sc3cccc(C(F)(F)F)c3c1Cl)C2 [Example 268, 2-((3-chloro-4-(trifluoromethyl)-1-benzothiophen-2-yl)carbonyl)-7-oxa-2,5-diazaspiro[3.4]octan-6-one] | 102
7 | O=C1NC2(CO1)CN(C(=O)c1sc3cc(OC(F)(F)F)cc(F)c3c1Cl)C2 [Example 269, 2-((3-chloro-4-fluoro-6-(trifluoromethoxy)-1-benzothiophen-2-yl)carbonyl)-7-oxa-2,5-diazaspiro[3.4]octan-6-one] | 100
8 | COc1c(C(=O)N2CC3(COC(=O)N3)C2)sc2c(C(F)(F)F)cccc12 [Example 270, 2-((3-methoxy-7-(trifluoromethyl)-1-benzothiophen-2-yl)carbonyl)-7-oxa-2,5-diazaspiro[3.4]octan-6-one] | 100
9 | O=C1NC2(CO1)CN(C(=O)c1sc3c(C(F)(F)F)cccc3c1OCC(F)(F)F)C2 [Example 271, 2-((3-(2,2,2-trifluoroethoxy)-7-(trifluoromethyl)-1-benzothiophen-2-yl)carbonyl)-7-oxa-2,5-diazaspiro[3.4]octan-6-one] | 100
10 | O=C1NC2(CO1)CN(C(=O)c1sc3c(C(F)(F)F)cccc3c1OC(F)F)C2 [Example 272, 2-((3-(difluoromethoxy)-7-(trifluoromethyl)-1-benzothiophen-2-yl)carbonyl)-7-oxa-2,5-diazaspiro[3.4]octan-6-one] | 100
11 | O=C1COCC2(CCN(C(=O)c3sc4cc(OC(F)(F)F)ccc4c3Cl)C2)N1 (centres unmarked) [Example 273, 2-((3-chloro-6-(trifluoromethoxy)-1-benzothiophen-2-yl)carbonyl)-9-oxa-2,6-diazaspiro[4.5]decan-7-one] | 100
12 | CC1(c2cccc(-c3ccc(C(=O)N4CC5(COC(=O)N5)C4)cc3F)c2)CC1 [Example 274, 2-((2-fluoro-3′-(1-methylcyclopropyl)biphenyl-4-yl)carbonyl)-7-oxa-2,5-diazaspiro[3.4]octan-6-one] | 101
13 | O=C1NC2(CO1)CN(C(=O)c1sc3ccc(C(F)(F)F)cc3c1C(F)F)C2 [Example 275, 2-((3-(difluoromethyl)-5-(trifluoromethyl)-1-benzothiophen-2-yl)carbonyl)-7-oxa-2,5-diazaspiro[3.4]octan-6-one] | 100
14 | O=C1COCC2(CCN(C(=O)N3CCC(COc4ccc(F)cc4Cl)CC3)C2)N1 (centres unmarked) [Example 276, 2-((4-((2-chloro-4-fluorophenoxy)methyl)piperidin-1-yl)carbonyl)-9-oxa-2,6-diazaspiro[4.5]decan-7-one] | 99
15 | O=C1NC2(CO1)CN(C(=O)c1sc3c(C(F)(F)F)cccc3c1C(F)F)C2 [Example 277, 2-((3-(difluoromethyl)-7-(trifluoromethyl)-1-benzothiophen-2-yl)carbonyl)-7-oxa-2,5-diazaspiro[3.4]octan-6-one] | 101
16 | O=C1NC2(CO1)CN(C(=O)c1sc3cc(C(F)F)ccc3c1Cl)C2 [Example 278, 2-((3-chloro-6-(difluoromethyl)-1-benzothiophen-2-yl)carbonyl)-7-oxa-2,5-diazaspiro[3.4]octan-6-one] | 101

The remaining lines, values ahead:

Row | inhibition at 10 µM [%] | Compound
17 | 100 | O=C1NC2(CO1)CN(C(=O)c1sc3c(F)c(OC(F)(F)F)ccc3c1Cl)C2 [Example 279, 2-((3-chloro-7-fluoro-6-(trifluoromethoxy)-1-benzothiophen-2-yl)carbonyl)-7-oxa-2,5-diazaspiro[3.4]octan-6-one]
18 | 101 | O=C1NC2(CO1)CN(C(=O)c1sc3cc(OC(F)(F)F)c(F)cc3c1Cl)C2 [Example 280, 2-((3-chloro-5-fluoro-6-(trifluoromethoxy)-1-benzothiophen-2-yl)carbonyl)-7-oxa-2,5-diazaspiro[3.4]octan-6-one]
19 | 100 | CC1(c2cccc(-c3cc(Cl)c(C(=O)N4CC5(COC(=O)N5)C4)s3)c2)CC1 [Example 281, 2-((3-chloro-5-(3-(1-methylcyclopropyl)phenyl)-2-thienyl)carbonyl)-7-oxa-2,5-diazaspiro[3.4]octan-6-one]
20 | 99 | O=C1NC2(CCO1)CN(C(=O)c1sc3cc(OC(F)(F)F)ccc3c1Cl)C2 [Example 282, 2-((3-chloro-6-(trifluoromethoxy)-1-benzothiophen-2-yl)carbonyl)-7-oxa-2,5-diazaspiro[3.5]nonan-6-one]
21 | 99 | O=C1NC2(CCO1)CN(C(=O)c1sc3cccc(OC(F)(F)F)c3c1Cl)C2 [Example 283, 2-((3-chloro-4-(trilfuoromethoxy)-1-benzothiophen-2-yl)carbonyl)-7-oxa-2,5-diazaspiro[3.5]nonan-6-one]
22 | 101 | COc1cc(F)c2c(Cl)c(C(=O)N3CC4(COC(=O)N4)C3)sc2c1 [Example 284, 2-((3-chloro-4-fluoro-6-methoxy-1-benzothiophen-2-yl)carbonyl)-7-oxa-2,5-diazaspiro[3.4]octan-6-one]
23 | 100 | O=C1NC2(CO1)CN(C(=O)c1sc3cc(Br)cc(F)c3c1Cl)C2 [Example 285, 2-((6-bromo-3-chloro-4-fluoro-1-benzothiophen-2-yl)carbonyl)-7-oxa-2,5-diazaspiro[3.4]octan-6-one]
24 | 100 | Cc1c(OC(F)(F)F)ccc2c(Cl)c(C(=O)N3CC4(COC(=O)N4)C3)sc12 [Example 286, 2-((3-chloro-7-methyl-6-(trifluoromethoxy)-1-benzothiophen-2-yl)carbonyl)-7-oxa-2,5-diazaspiro[3.4]octan-6-one]
25 | 101 | O=C1NC2(CO1)CN(C(=O)c1sc3cc(OCC(F)(F)F)ccc3c1Cl)C2 [Example 287, 2-((3-chloro-6-(2,2,2-trifluoroethoxy)-1-benzothiophen-2-yl)carbonyl)-7-oxa-2,5-diazaspiro[3.4]octan-6-one]
26 | 100 | O=C1NC2(CO1)CN(C(=O)c1sc3ccccc3c1Cl)C2 [Example 288, 2-((3-chloro-1-benzothiophen-2-yl)carbonyl)-7-oxa-2,5-diazaspiro[3.4]octan-6-one]
27 | 101 | O=C1NC2(CO1)CN(C(=O)c1sc3cccc(Cl)c3c1Cl)C2 [Example 289, 2-((3,4-dichloro-1-benzothiophen-2-yl)carbonyl)-7-oxa-2,5-diazaspiro[3.4]octan-6-one]
28 | 101 | O=C1NC2(CO1)CN(C(=O)c1sc3c(Cl)c(OC(F)(F)F)ccc3c1Cl)C2 [Example 290, 2-((3,7-dichloro-6-(trifluoromethoxy)-1-benzothiophen-2-yl)carbonyl)-7-oxa-2,5-diazaspiro[3.4]octan-6-one]
29 | 101 | O=C1NC2(CO1)CN(C(=O)c1sc3cc(C(F)F)cc(C(F)(F)F)c3c1Cl)C2 [Example 291, 2-((3-chloro-6-(difluoromethyl)-4-(trifluoromethyl)-1-benzothiophen-2-yl)carbonyl)-7-oxa-2,5-diazaspiro[3.4]octan-6-one]
30 | 100 | O=C1NC2(CO1)CN(C(=O)c1sc3cc(OC(F)F)cc(C(F)(F)F)c3c1Cl)C2 [Example 292, 2-((3-chloro-6-(difluoromethoxy)-4-(trifluoromethyl)-1-benzothiophen-2-yl)carbonyl)-7-oxa-2,5-diazaspiro[3.4]octan-6-one]
31 | 101 | O=C1NC2(CO1)CN(C(=O)c1sc3cc(OC(F)(F)F)cc(Cl)c3c1Cl)C2 [Example 293, 2-((3,4-dichloro-6-(trifluoromethoxy)-1-benzothiophen-2-yl)carbonyl)-7-oxa-2,5-diazaspiro[3.4]octan-6-one]
32 | 100 | COc1cc(F)c2c(Cl)c(C(=O)N3CC4(COC(=O)N4)C3)sc2c1Cl [Example 294, 2-((3,7-dichloro-4-fluoro-6-methoxy-1-benzothiophen-2-yl)carbonyl)-7-oxa-2,5-diazaspiro[3.4]octan-6-one]
